Reference: PubChem BioAssay AID1745844 (Carcinogenic Potency Database (CPDB), 2022)
Several values for one entry are separate records, joined by “and”; a condition that tells them apart may be missing. Equal values may be shown once. Activity calls are given as the source filed them. No rule for the calls is given here. Peptide text beside a SMILES is read from it.

Test system: rodent lifetime carcinogenesis bioassay, tumor incidence TD50
Assay: chronic cancer bioassays in animals – CPDB, compiled studies (AID 1745844)

CCN(CC)C(=S)SSC(=S)N(CC)CC
TD50 (mouse, strain B6AKF1, females, oral dosing, site: any site (literature study), lesion: several types, types named in the paper, dosed 76 weeks, study length 76 weeks): 1940 mg/kg/day | TD50 (mouse, strain B6AKF1, females, oral dosing, site: lung, lesion: adenoma, dosed 76 weeks, study length 76 weeks): 4140 mg/kg/day | TD50 (mouse, strain B6AKF1, males, oral dosing, site: any site (literature study), lesion: several types, types named in the paper, dosed 76 weeks, study length 76 weeks): 10.1 mg/kg/day | TD50 (mouse, strain B6AKF1, males, oral dosing, site: liver, lesion: hepatoma, dosed 76 weeks, study length 76 weeks): 197 mg/kg/day | TD50 (mouse, strain B6AKF1, males, oral dosing, site: subcutaneous tissue, lesion: fibrosarcoma, dosed 76 weeks, study length 76 weeks): 15.4 mg/kg/day | carcinogen call (mouse, strain B6C3F1, females, in feed, site: any site (literature study), lesion: several types, types named in the paper, dosed 108 weeks, study length 108 weeks): negative (inactive) | TD50 (mouse, strain B6C3F1, females, in feed, site: liver, lesion: hepatocellular adenoma + hepatocellular carcinoma + neoplastic nodule, dosed 108 weeks, study length 108 weeks): 120 mg/kg/day | TD50 (mouse, strain B6C3F1, females, in feed, site: lung, lesion: alveolar/bronchiolar adenoma + alveolar/bronchiolar carcinoma, dosed 108 weeks, study length 108 weeks): 323 mg/kg/day | TD50 (mouse, strain B6C3F1, females, oral dosing, site: any site (literature study), lesion: several types, types named in the paper, dosed 76 weeks, study length 76 weeks): 64.5 mg/kg/day | TD50 (mouse, strain B6C3F1, females, oral dosing, site: liver, lesion: hepatoma, dosed 76 weeks, study length 76 weeks): 283 mg/kg/day | TD50 (mouse, strain B6C3F1, females, oral dosing, site: lung, lesion: adenoma, dosed 76 weeks, study length 76 weeks): 283 mg/kg/day | TD50 (mouse, strain B6C3F1, females, oral dosing, site: lung, lesion: carcinoma, dosed 76 weeks, study length 76 weeks): 283 mg/kg/day | TD50 (mouse, strain B6C3F1, females, oral dosing, site: lung, lesion: several types, types named in the paper, dosed 76 weeks, study length 76 weeks): 138 mg/kg/day | carcinogen call (mouse, strain B6C3F1, males, in feed, site: any site (literature study), lesion: several types, types named in the paper, dosed 108 weeks, study length 108 weeks): negative (inactive) | TD50 (mouse, strain B6C3F1, males, oral dosing, site: any site (literature study), lesion: several types, types named in the paper, dosed 76 weeks, study length 76 weeks): 17 mg/kg/day | TD50 (mouse, strain B6C3F1, males, oral dosing, site: liver, lesion: hepatoma, dosed 76 weeks, study length 76 weeks): 23.7 mg/kg/day | TD50 (mouse, strain B6C3F1, males, oral dosing, site: lung, lesion: adenoma, dosed 76 weeks, study length 76 weeks): 43.2 mg/kg/day | carcinogen call (rat, strain Charles River CD (Sprague-Dawley), females, in feed, site: any site (literature study), lesion: one or several types, types not named, dosed 104 weeks, study length 104 weeks): negative (inactive) | TD50 (rat, strain Charles River CD (Sprague-Dawley), females, in feed, site: any site (literature study), lesion: several types, types named in the paper, dosed 78 weeks, study length 78 weeks): 193 mg/kg/day | TD50 (rat, strain Charles River CD (Sprague-Dawley), females, in feed, site: liver, lesion: neoplastic nodule, dosed 104 weeks, study length 104 weeks): 41100 mg/kg/day (inactive) | TD50 (rat, strain Charles River CD (Sprague-Dawley), females, in feed, site: mammary gland, lesion: several types, types named in the paper, dosed 78 weeks, study length 78 weeks): 68.9 mg/kg/day | carcinogen call (rat, strain Charles River CD (Sprague-Dawley), males, in feed, site: any site (literature study), lesion: one or several types, types not named, dosed 104 weeks, study length 104 weeks): negative (inactive) | carcinogen call (rat, strain Charles River CD (Sprague-Dawley), males, in feed, site: liver, lesion: hepatocellular carcinoma, dosed 104 weeks, study length 104 weeks): negative (inactive) | TD50 (rat, strain Charles River CD (Sprague-Dawley), males, in feed, site: liver, lesion: hepatocellular tumor, dosed 78 weeks, study length 78 weeks): 366 mg/kg/day | TD50 (rat, strain Charles River CD (Sprague-Dawley), males, in feed, site: liver, lesion: neoplastic nodule, dosed 104 weeks, study length 104 weeks): 678 mg/kg/day (inactive) | carcinogen call (rat, strain Fischer 344, females, in feed, site: any site (literature study), lesion: several types, types named in the paper, dosed 107 weeks, study length 107 weeks): negative (inactive) | TD50 (rat, strain Fischer 344, females, in feed, site: liver, lesion: hepatocellular adenoma + hepatocellular carcinoma + neoplastic nodule, dosed 107 weeks, study length 107 weeks): 1430 mg/kg/day | carcinogen call (rat, strain Fischer 344, males, in feed, site: any site (literature study), lesion: several types, types named in the paper, dosed 107 weeks, study length 107 weeks): negative (inactive)

C1CCC(C(CC2CCCCN2)C2CCCCC2)CC1 (configuration not stated)
carcinogen call (rat, strain Sprague-Dawley, females, in feed, site: liver, lesion: one or several types, types not named, dosed 52 weeks, study length 52 weeks): negative (inactive) | carcinogen call (rat, strain Sprague-Dawley, females, in feed, site: liver, lesion: one or several types, types not named, dosed 52 weeks, study length 56 weeks): negative (inactive) | carcinogen call (rat, strain Sprague-Dawley, males, in feed, site: liver, lesion: one or several types, types not named, dosed 52 weeks, study length 52 weeks): negative (inactive) | carcinogen call (rat, strain Sprague-Dawley, males, in feed, site: liver, lesion: one or several types, types not named, dosed 52 weeks, study length 56 weeks): negative (inactive)

CN(N=O)c1ncnc2nc[nH]c12
TD50 (mouse, strain Swiss CD-1, females, in drinking water, site: liver, lesion: several types, types named in the paper, dosed 104 weeks, study length 104 weeks): 63.2 mg/kg/day | TD50 (mouse, strain Swiss CD-1, females, in drinking water, site: mammary gland, lesion: carcinoma, dosed 104 weeks, study length 104 weeks): 28.7 mg/kg/day | TD50 (mouse, strain Swiss CD-1, females, in drinking water, site: reproductive tract, lesion: several types, types named in the paper, dosed 104 weeks, study length 104 weeks): 15.8 mg/kg/day | TD50 (mouse, strain Swiss CD-1, females, in drinking water, site: uterus, lesion: one or several types, types not named, dosed 104 weeks, study length 104 weeks): 84.9 mg/kg/day | TD50 (mouse, strain Swiss CD-1, males, in drinking water, site: liver, lesion: several types, types named in the paper, dosed 104 weeks, study length 104 weeks): 62.6 mg/kg/day | TD50 (mouse, strain Swiss CD-1, males, in drinking water, site: lung, lesion: one or several types, types not named, dosed 104 weeks, study length 104 weeks): 18 mg/kg/day and 21.6 mg/kg/day

CC(C)(C)NC(=O)[C@H]1CC[C@H]2[C@@H]3CC[C@H]4NC(=O)C=C[C@]4(C)[C@H]3CC[C@]12C
TD50 (mouse, strain Charles River CD1, males, by gavage, site: testis, lesion: Leydig-cell adenoma, dosed 83 weeks, study length 83 weeks): 326 mg/kg/day

C=C1C(CCl)(CCl)C2(Cl)C(Cl)C(Cl)C1(Cl)C2(Cl)Cl (configuration not stated)
TD50 (mouse, strain B6C3F1, females, in feed, site: liver, lesion: hepatocellular adenoma, dosed 78 weeks, study length 104 weeks): 91.6 mg/kg/day | TD50 (mouse, strain B6C3F1, females, in feed, site: liver, lesion: hepatocellular adenoma, dosed 80 weeks, study length 90 weeks): 11.4 mg/kg/day and 11.6 mg/kg/day | TD50 (mouse, strain B6C3F1, females, in feed, site: liver, lesion: hepatocellular carcinoma, dosed 78 weeks, study length 104 weeks): 66.2 mg/kg/day | TD50 (mouse, strain B6C3F1, females, in feed, site: liver, lesion: hepatocellular carcinoma, dosed 80 weeks, study length 90 weeks): 273 mg/kg/day | TD50 (mouse, strain B6C3F1, females, in feed, site: liver, lesion: several types, pooled by NCI/NTP, dosed 80 weeks, study length 90 weeks): 10.6 mg/kg/day and 10.8 mg/kg/day | TD50 (mouse, strain B6C3F1, females, in feed, site: liver, lesion: several types, types named in the paper, dosed 78 weeks, study length 104 weeks): 37 mg/kg/day | TD50 (mouse, strain B6C3F1, males, in feed, site: liver, lesion: hepatocellular adenoma, dosed 78 weeks, study length 104 weeks): 21.2 mg/kg/day | TD50 (mouse, strain B6C3F1, males, in feed, site: liver, lesion: hepatocellular adenoma, dosed 80 weeks, study length 90 weeks): 6.12 mg/kg/day and 5.76 mg/kg/day | TD50 (mouse, strain B6C3F1, males, in feed, site: liver, lesion: hepatocellular carcinoma, dosed 78 weeks, study length 104 weeks): 27.5 mg/kg/day | TD50 (mouse, strain B6C3F1, males, in feed, site: liver, lesion: hepatocellular carcinoma, dosed 80 weeks, study length 90 weeks): 248 mg/kg/day and 168 mg/kg/day | TD50 (mouse, strain B6C3F1, males, in feed, site: liver, lesion: several types, pooled by NCI/NTP, dosed 80 weeks, study length 90 weeks): 4.2 mg/kg/day and 4.08 mg/kg/day | TD50 (mouse, strain B6C3F1, males, in feed, site: liver, lesion: several types, types named in the paper, dosed 78 weeks, study length 104 weeks): 13.6 mg/kg/day | TD50 (rat, strain Osborne-Mendel, females, in feed, site: any site (literature study), lesion: several types, types named in the paper, dosed 80 weeks, study length 108 weeks): 596 mg/kg/day | TD50 (rat, strain Osborne-Mendel, females, in feed, site: thyroid gland, lesion: follicular-cell adenoma, dosed 80 weeks, study length 108 weeks): 209 mg/kg/day | TD50 (rat, strain Osborne-Mendel, males, in feed, site: any site (literature study), lesion: several types, types named in the paper, dosed 80 weeks, study length 108 weeks): 1020 mg/kg/day | TD50 (rat, strain Osborne-Mendel, males, in feed, site: liver, lesion: hepatocellular adenoma + hepatocellular carcinoma + neoplastic nodule, dosed 80 weeks, study length 108 weeks): 949 mg/kg/day | TD50 (rat, strain Osborne-Mendel, males, in feed, site: liver, lesion: neoplastic nodule, dosed 80 weeks, study length 108 weeks): 92.1 mg/kg/day | TD50 (rat, strain Osborne-Mendel, males, in feed, site: thyroid gland, lesion: follicular-cell adenoma + follicular-cell carcinoma, dosed 80 weeks, study length 108 weeks): 58.9 mg/kg/day

N[C@@H](CCC(=O)NNc1ccc(C(=O)O)cc1)C(=O)O
TD50 (mouse, strain Swiss albino, females, by gavage, site: liver, lesion: several types, types named in the paper, dosed 52 weeks, study length 133 weeks): 41400 mg/kg/day | TD50 (mouse, strain Swiss albino, males, by gavage, site: lung, lesion: several types, types named in the paper, dosed 52 weeks, study length 133 weeks): 250 mg/kg/day | TD50 (mouse, strain Swiss albino, males, by gavage, site: subcutaneous tissue, lesion: fibrosarcoma, dosed 52 weeks, study length 133 weeks): 277 mg/kg/day

Cc1ncc([N+](=O)[O-])n1C
TD50 (rat, strain Sprague-Dawley, females, in feed, site: any site (literature study), lesion: several types, types named in the paper, dosed 46 weeks, study length 66 weeks): 17 mg/kg/day | TD50 (rat, strain Sprague-Dawley, females, in feed, site: mammary gland, lesion: fibroadenoma, dosed 46 weeks, study length 66 weeks): 17 mg/kg/day

COC(=O)[C@H](Cc1ccccc1)NC(=O)[C@@H](N)CC(=O)O (H-Asp-Phe-OMe)
carcinogen call (rat, strain Charles River CD (Sprague-Dawley), females, in feed, site: any site (literature study), lesion: several types, types named in the paper, dosed 104 weeks, study length 104 weeks): negative (inactive) | TD50 (rat, strain Charles River CD (Sprague-Dawley), females, in feed, site: brain, lesion: several types, types named in the paper, dosed 104 weeks, study length 104 weeks): 118000 mg/kg/day (inactive) | carcinogen call (rat, strain Charles River CD (Sprague-Dawley), females, in feed, site: liver, lesion: hepatoma, benign, dosed 104 weeks, study length 104 weeks): negative (inactive) | carcinogen call (rat, strain Charles River CD (Sprague-Dawley), males, in feed, site: any site (literature study), lesion: several types, types named in the paper, dosed 104 weeks, study length 104 weeks): negative (inactive) | TD50 (rat, strain Charles River CD (Sprague-Dawley), males, in feed, site: brain, lesion: several types, types named in the paper, dosed 104 weeks, study length 104 weeks): 666000 mg/kg/day (inactive) | TD50 (rat, strain Charles River CD (Sprague-Dawley), males, in feed, site: liver, lesion: hepatoma, benign, dosed 104 weeks, study length 104 weeks): 1.3e+06 mg/kg/day (inactive) | carcinogen call (rat, strain Slc-Wistar, females, in feed, site: brain, lesion: several types, types named in the paper, dosed 104 weeks, study length 104 weeks): negative (inactive) | TD50 (rat, strain Slc-Wistar, males, in feed, site: brain, lesion: several types, types named in the paper, dosed 104 weeks, study length 104 weeks): 186000 mg/kg/day (inactive)

ClC1(Cl)C2(Cl)C3C4(Cl)C1(Cl)C1(Cl)C4(Cl)C(Cl)(Cl)C3(Cl)C21Cl (configuration not stated)
TD50 (rat, strain Sprague-Dawley, males, in feed, site: liver, lesion: neoplastic nodule, dosed 91 weeks, study length 91 weeks): 6.68 mg/kg/day | TD50 (rat, strain Sprague-Dawley, males, in feed, site: thyroid gland, lesion: adenoma, dosed 91 weeks, study length 91 weeks): 1.46 mg/kg/day

C=CC(OCC)OCC
TD50 (rat, strain Fischer 344, females, in drinking water, site: liver, lesion: hyperplastic nodule, dosed 102 weeks, study length 130 weeks): 131 mg/kg/day | TD50 (rat, strain Fischer 344, females, in drinking water, site: liver, lesion: several types, types named in the paper, dosed 102 weeks, study length 130 weeks): 123 mg/kg/day | TD50 (rat, strain Fischer 344, males, in drinking water, site: liver, lesion: hepatocellular carcinoma, dosed 102 weeks, study length 130 weeks): 262 mg/kg/day | TD50 (rat, strain Fischer 344, males, in drinking water, site: liver, lesion: hyperplastic nodule, dosed 102 weeks, study length 130 weeks): 266 mg/kg/day | TD50 (rat, strain Fischer 344, males, in drinking water, site: liver, lesion: several types, types named in the paper, dosed 102 weeks, study length 130 weeks): 124 mg/kg/day
